Test results taken from ChEMBL document CHEMBL5365466, “Discovery of Triazolyl Derivatives of Cucurbitacin B Targeting IGF2BP1 against Non-Small Cell Lung Cancer” (J Med Chem, 2023).
Blank lines part the entries; values can stand above or below the compound they belong to.

Tests used:
[1] = system: HepG2; assay: Antiproliferative activity against human HepG2 cells assessed as cell growth inhibition incubated for 72 hrs by MTT assay; assay type: functional, cell-based; settings: HepG2, 72 h
[2] = Antiproliferative activity against human L02 cells assessed as cell growth inhibition incubated for 72 hrs by MTT assay; assay type: toxicity, cell-based
[3] = system: HCT-116; assay: Antiproliferative activity against human HCT-116 cells assessed as cell growth inhibition at 1 uM incubated for 72 hrs by SRB assay; assay type: functional
[4] = system: HCT-116; assay: Antiproliferative activity against human HCT-116 cells assessed as cell growth inhibition at 0.1 uM incubated for 72 hrs by SRB assay; assay type: functional
[5] = Antiproliferative activity against human L02 cells assessed as cell growth inhibition at 1 uM incubated for 72 hrs by SRB assay; assay type: toxicity, cell-based
[6] = Antiproliferative activity against human L02 cells assessed as cell growth inhibition at 0.1 uM incubated for 72 hrs by SRB assay; assay type: toxicity, cell-based
[7] = system: HCT-116; assay: Antiproliferative activity against human HCT-116 cells assessed as cell growth inhibition incubated for 72 hrs by SRB assay; assay type: functional, cell-based; settings: HCT-116, 72 h
[8] = Antiproliferative activity against human L02 cells assessed as cell growth inhibition incubated for 72 hrs by SRB assay; assay type: toxicity, cell-based
[9] = Selectivity index, ratio of IC50 for antiproliferative activity against human L02 cells to IC50 for antiproliferative activity against human HCT-116 cells; assay type: toxicity, cell-based; settings: L02 cells versus HCT-116 cells, read-out: Ratio IC50
[10] = system: A549; assay: Antiproliferative activity against human A549 cells assessed as cell growth inhibition; assay type: functional, cell-based
[11] = system: A549; assay: Antiproliferative activity against human A549 cells assessed as cell growth inhibition incubated for 72 hrs by SRB assay; assay type: functional, cell-based; settings: A549, 72 h
[12] = system: MDA-MB-231; assay: Antiproliferative activity against human MDA-MB-231 cells assessed as cell growth inhibition incubated for 72 hrs by SRB assay; assay type: functional, cell-based; settings: MDA-MB-231, 72 h
[13] = system: MCF7; assay: Antiproliferative activity against human MCF7 cells assessed as cell growth inhibition incubated for 72 hrs by SRB assay; assay type: functional, cell-based; settings: MCF7, 72 h
[14] = system: SK-OV-3; assay: Antiproliferative activity against human SK-OV-3 cells assessed as cell growth inhibition incubated for 72 hrs by SRB assay; assay type: functional, cell-based; settings: SK-OV-3, 72 h
[15] = system: HeLa; assay: Antiproliferative activity against human HeLa cells assessed as cell growth inhibition incubated for 72 hrs by SRB assay; assay type: functional, cell-based
[16] = system: HepG2; assay: Antiproliferative activity against human HepG2 cells assessed as cell growth inhibition incubated for 72 hrs by SRB assay; assay type: functional, cell-based; settings: HepG2, 72 h
[17] = system: BXPC-3; assay: Antiproliferative activity against human BXPC-3 cells assessed as cell growth inhibition incubated for 72 hrs by SRB assay; assay type: functional, cell-based; settings: BXPC-3, 72 h
[18] = system: PANC-1; assay: Antiproliferative activity against human PANC-1 cells assessed as cell growth inhibition incubated for 72 hrs by SRB assay; assay type: functional, cell-based; settings: PANC-1, 72 h
[19] = system: CFPAC-1; assay: Antiproliferative activity against human CFPAC-1 cells assessed as cell growth inhibition incubated for 72 hrs by SRB assay; assay type: functional, cell-based; settings: CFPAC-1, 72 h
[20] = Selectivity index, ratio of IC50 for antiproliferative activity against human L02 cells to IC50 for antiproliferative activity against human A549 cells; assay type: toxicity, cell-based; settings: L02 cells versus A549 cells, read-out: Ratio IC50
[21] = Selectivity index, ratio of IC50 for antiproliferative activity against human L02 cells to IC50 for antiproliferative activity against human MDA-MB-231 cells; assay type: toxicity, cell-based; settings: L02 cells versus MDA-MB-231 cells, read-out: Ratio IC50
[22] = Selectivity index, ratio of IC50 for antiproliferative activity against human L02 cells to IC50 for antiproliferative activity against human MCF7 cells; assay type: toxicity, cell-based; settings: L02 cells versus MCF7 cells, read-out: Ratio IC50
[23] = Selectivity index, ratio of IC50 for antiproliferative activity against human L02 cells to IC50 for antiproliferative activity against human SK-OV-3 cells
[24] = Selectivity index, ratio of IC50 for antiproliferative activity against human L02 cells to IC50 for antiproliferative activity against human HeLa cells; assay type: toxicity, cell-based; settings: L02 cells versus HeLa cells, read-out: Ratio IC50
[25] = Selectivity index, ratio of IC50 for antiproliferative activity against human L02 cells to IC50 for antiproliferative activity against human HepG2 cells; assay type: toxicity, cell-based; settings: L02 cells versus HepG2 cells, read-out: Ratio IC50
[26] = Selectivity index, ratio of IC50 for antiproliferative activity against human L02 cells to IC50 for antiproliferative activity against human BXPC-3 cells; assay type: toxicity, cell-based; settings: L02 cells versus BXPC-3 cells, read-out: Ratio IC50
[27] = Selectivity index, ratio of IC50 for antiproliferative activity against human L02 cells to IC50 for antiproliferative activity against human PANC-1 cells
[28] = Selectivity index, ratio of IC50 for antiproliferative activity against human L02 cells to IC50 for antiproliferative activity against human CFPAC-1 cells
[29] = system: A549; assay: Induction of apoptosis in human A549 cells at 0.5 uM incubated for 48 hrs by Annexin V-FITC/PI staining based flow cytometric analysis; assay type: functional
[30] = system: A549; assay: Induction of cell cycle arrest in human A549 cells assessed as accumulation of cells at G1 phase at 0.5 uM incubated for 24 hrs by PI staining based flow cytometric analysis (reference value: 65.6 %); assay type: functional
[31] = system: A549; assay: Induction of cell cycle arrest in human A549 cells assessed as accumulation of cells at S phase at 0.5 uM incubated for 24 hrs by PI staining based flow cytometric analysis (reference value: 23 %); assay type: functional
[32] = system: A549; assay: Induction of cell cycle arrest in human A549 cells assessed as accumulation of cells at G2 phase at 0.5 uM incubated for 24 hrs by PI staining based flow cytometric analysis (reference value: 9.26 %); assay type: functional
[33] = molecular target: Insulin-like growth factor 2 mRNA-binding protein 1 (Homo sapiens, UniProt Q9NZI8); assay: Binding affinity to His-tagged recombinant IGF2BP1 (unknown origin) assessed as dissociation constant by surface plasmon resonance assay
[34] = Acute toxicity in C57BL/6J mouse assessed as death at 0.75 mg/kg,ip measured after 14 days; assay type: organism-based; settings: in vivo, 336 h, time 14 day
[35] = system: A549; assay: Antitumor activity against human A549 cells xenografted in BALB/c mouse assessed as tumor growth inhibition at 0.5 mg/kg,ip administrated for 21 days; assay type: functional; settings: A549, 504 h, time 21 day, read-out: TGI

Insulin-like growth factor 2 mRNA-binding protein 1, sequence (Q9NZI8 whole entry): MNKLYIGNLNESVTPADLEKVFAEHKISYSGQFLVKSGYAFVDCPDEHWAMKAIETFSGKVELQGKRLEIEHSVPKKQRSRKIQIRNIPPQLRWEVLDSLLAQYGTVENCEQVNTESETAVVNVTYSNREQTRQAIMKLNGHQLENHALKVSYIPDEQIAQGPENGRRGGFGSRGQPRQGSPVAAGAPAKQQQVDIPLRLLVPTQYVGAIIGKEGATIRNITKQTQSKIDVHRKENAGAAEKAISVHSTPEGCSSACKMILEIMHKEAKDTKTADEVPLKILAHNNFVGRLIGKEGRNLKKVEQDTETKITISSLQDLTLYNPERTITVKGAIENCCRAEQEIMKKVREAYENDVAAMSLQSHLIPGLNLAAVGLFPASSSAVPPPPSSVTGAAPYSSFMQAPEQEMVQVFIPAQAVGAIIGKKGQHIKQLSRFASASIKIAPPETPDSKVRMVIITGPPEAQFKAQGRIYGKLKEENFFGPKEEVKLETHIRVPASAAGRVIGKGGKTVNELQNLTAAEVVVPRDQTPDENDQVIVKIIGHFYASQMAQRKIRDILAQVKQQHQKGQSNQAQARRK

Compound: CC(=O)OC(C)(C)/C=C/C(=O)[C@](C)(O)[C@H]1[C@H](OCCCC(=O)OCCCOc2no[n+]([O-])c2S(=O)(=O)c2ccccc2)C[C@@]2(C)[C@@H]3CC=C4[C@@H](C[C@H](O)C(=O)C4(C)C)[C@]3(C)C(=O)C[C@]12C
- IC50 [1]: 630 nM
- IC50 at 72 h [2]: 2970 nM

Compound: COc1cc(-n2cnn(CC(=O)O[C@H]3C[C@@H]4C(=CC[C@@H]5[C@@]4(C)C(=O)C[C@]4(C)[C@@H]([C@@](C)(O)C(=O)/C=C/C(C)(C)OC(C)=O)[C@H](O)C[C@@]54C)C(C)(C)C3=O)c2=O)cc(OC)c1OC
- inhibition at 1 µM [3]: 84.2%
- inhibition at 0.1 µM [4]: 78%
- inhibition at 72 h, 1 µM [5]: 70%
- inhibition at 72 h, 0.1 µM [6]: 66%
- IC50 [7]: 37 nM
- IC50 at 72 h [8]: 30 nM
- selectivity ratio [9]: 0.81

Compound: CC1(C)C(=O)[C@@H](O)C[C@@H]2C1=CC[C@@H]1[C@@]2(C)C(=O)C[C@]2(C)[C@@H]([C@@](C)(O)C(=O)/C=C/C(C)(C)c3cccc(C#N)c3)[C@H](O)C[C@@]12C
- IC50 [10]: 6.8 nM

Compound: CC(=O)OC(C)(C)/C=C/C(=O)[C@](C)(O)[C@H]1[C@H](O)C[C@@]2(C)[C@@H]3CC=C4[C@@H](C[C@H](N)C(=O)C4(C)C)[C@]3(C)C(=O)C[C@]12C
- IC50 [10]: 120 nM

Compound: CC(=O)OC(C)(C)/C=C/C(=O)[C@](C)(O)[C@H]1[C@H](O)C[C@@]2(C)[C@@H]3CC=C4[C@@H](C[C@H](OC(=O)c5cn(-c6ccc(F)cc6)nn5)C(=O)C4(C)C)[C@]3(C)C(=O)C[C@]12C
- inhibition at 1 µM [3]: 87.4%
- inhibition at 0.1 µM [4]: 65.3%
- inhibition at 72 h, 1 µM [5]: 71.9%
- inhibition at 72 h, 0.1 µM [6]: 36.4%
- IC50 [7]: 31 nM
- IC50 at 72 h [8]: 80 nM
- selectivity ratio [9]: 2.58

Compound: CC(=O)OC(C)(C)/C=C/C(=O)[C@](C)(O)[C@H]1[C@H](O)C[C@@]2(C)[C@@H]3CC=C4[C@@H](C[C@H](OC(=O)c5ccccn5)C(=O)C4(C)C)[C@]3(C)C(=O)C[C@]12C
- inhibition at 1 µM [3]: 83.1%
- inhibition at 0.1 µM [4]: 67.9%
- inhibition at 72 h, 1 µM [5]: 71.2%
- inhibition at 72 h, 0.1 µM [6]: 44.8%
- IC50 [7]: 79 nM
- IC50 at 72 h [8]: 34 nM
- selectivity ratio [9]: 0.43

Compound: CC(=O)OC(C)(C)/C=C/C(=O)[C@](C)(O)[C@H]1[C@H](O)C[C@@]2(C)[C@@H]3CC=C4[C@@H](C[C@H](O)C(=O)C4(C)C)[C@]3(C)C(=O)C[C@]12C
- inhibition at 1 µM [3]: 82.7%
- inhibition at 0.1 µM [4]: 69%
- inhibition at 72 h, 1 µM [5]: 70.7%
- inhibition at 72 h, 0.1 µM [6]: 70.6%
- IC50 [7]: 19 nM
- IC50 at 72 h [8]: 11 nM
- selectivity ratio [9]: 0.57
- IC50 [11]: 88 nM
- IC50 [12]: 37 nM
- IC50 [13]: 40 nM
- IC50 [14]: 47 nM
- IC50 [15]: 24 nM
- IC50 [16]: 51 nM
- IC50 [17]: 22 nM
- IC50 [18]: 67 nM
- IC50 [19]: 23 nM
- selectivity ratio [20]: 0.13
- selectivity ratio [21]: 0.3
- selectivity ratio [22]: 0.23
- Ratio IC50 [23]: 0.23
- selectivity ratio [24]: 0.46
- selectivity ratio [25]: 0.22
- selectivity ratio [26]: 0.5
- Ratio IC50 [27]: 0.16
- Ratio IC50 [28]: 0.49
- Activity [29]: 29.1%
- Activity [30]: 51.1%
- Activity [31]: 10.2%
- Activity [32]: 37.2%
- Kd [33]: 66.2 nM
- Activity [34]: Non-Toxic
- inhibition in vivo at 0.5 mg/kg [35]: 53%

Compound: CC(=O)OC(C)(C)/C=C/C(=O)[C@](C)(O)[C@H]1[C@H](O)C[C@@]2(C)[C@@H]3CC=C4[C@@H](C[C@H](OC(=O)Cn5ncn(-c6ccccc6)c5=O)C(=O)C4(C)C)[C@]3(C)C(=O)C[C@]12C
- inhibition at 1 µM [3]: 82.2%
- inhibition at 0.1 µM [4]: 67.9%
- inhibition at 72 h, 1 µM [5]: 71.6%
- inhibition at 72 h, 0.1 µM [6]: 59.6%
- IC50 [7]: 51 nM
- IC50 at 72 h [8]: 80 nM
- selectivity ratio [9]: 1.57

Second part, led by results:

- IC50 [7]: 44 nM
Compound: COc1ccc(-n2cnn(CC(=O)O[C@H]3C[C@@H]4C(=CC[C@@H]5[C@@]4(C)C(=O)C[C@]4(C)[C@@H]([C@@](C)(O)C(=O)/C=C/C(C)(C)OC(C)=O)[C@H](O)C[C@@]54C)C(C)(C)C3=O)c2=O)cc1
- inhibition at 1 µM [3]: 83.3%
- inhibition at 0.1 µM [4]: 64.3%
- inhibition at 72 h, 1 µM [5]: 70.8%
- inhibition at 72 h, 0.1 µM [6]: 31.4%
- IC50 at 72 h [8]: 33 nM
- selectivity ratio [9]: 0.75

- IC50 [7]: 121 nM
Compound: CC(=O)OC(C)(C)/C=C/C(=O)[C@](C)(O)[C@H]1[C@H](O)C[C@@]2(C)[C@@H]3CC=C4[C@@H](C[C@H](OC(=O)Cn5ncn(-c6ccc(C)cc6)c5=O)C(=O)C4(C)C)[C@]3(C)C(=O)C[C@]12C
- inhibition at 1 µM [3]: 82.1%
- inhibition at 0.1 µM [4]: 72.5%
- inhibition at 72 h, 1 µM [5]: 68.2%
- inhibition at 72 h, 0.1 µM [6]: 36.5%
- IC50 at 72 h [8]: 40 nM
- selectivity ratio [9]: 0.33

- IC50 [7]: 63 nM
Compound: CC(=O)OC(C)(C)/C=C/C(=O)[C@](C)(O)[C@H]1[C@H](O)C[C@@]2(C)[C@@H]3CC=C4[C@@H](C[C@H](OC(=O)Cn5ncn(-c6ccc(Cl)cc6)c5=O)C(=O)C4(C)C)[C@]3(C)C(=O)C[C@]12C
- inhibition at 1 µM [3]: 84.4%
- inhibition at 0.1 µM [4]: 69%
- inhibition at 72 h, 1 µM [5]: 70.9%
- inhibition at 72 h, 0.1 µM [6]: 61.3%
- IC50 at 72 h [8]: 31 nM
- selectivity ratio [9]: 0.49

- IC50 [7]: 76 nM
Compound: CC(=O)OC(C)(C)/C=C/C(=O)[C@](C)(O)[C@H]1[C@H](O)C[C@@]2(C)[C@@H]3CC=C4[C@@H](C[C@H](OC(=O)Cn5ncn(-c6ccc(Br)cc6)c5=O)C(=O)C4(C)C)[C@]3(C)C(=O)C[C@]12C
- inhibition at 1 µM [3]: 84.2%
- inhibition at 0.1 µM [4]: 70.8%
- inhibition at 72 h, 1 µM [5]: 67.5%
- inhibition at 72 h, 0.1 µM [6]: 54.1%
- IC50 at 72 h [8]: 31 nM
- selectivity ratio [9]: 0.41
